In the NIST ThermoML archive (doi:10.1016/j.fluid.2013.11.036):
Numbers after ± are expanded uncertainties.

Details: Liquid; for mass density: 298.15 K, 101.33 kPa, Vibrating tube method; for Normal boiling temperature: Ebulliometric method (Recirculating still)

Row | mass density [kg/m3] | Normal boiling temperature [°C] | SMILES
1 | 1042.5 ± 0.2 | 117.88 ± 0.2 | CC(=O)O [acetic acid]
2 | 997.8 ± 0.2 | 100.00 ± 0.2 | O [water]
